Experimental findings from US9394297B2, “Amides as pim inhibitors” (AMGEN INC., priority 2012, dated 2016) are described below.

Experiment [1] concerns the target T1, Pim-1 (Homo sapiens (Human), UniProt P11309). Description: Pim enzyme assay (HTRF, 96-well), Pim-1. To be noted: full length recombinant Pim-1, biotinylated-BAD (S112) peptide, 10-point curve, 2 h RT, read-out: Pim-1 IC50 IP. It is filed as biochemical. An excerpt: These cDNAs were used as templates in PCR reactions to produce full-length DNA clones of the PIMs. […] PCR products were digested with BclI and EcoRI for Pim-1 and BamHI and EcoRI for Pim-2 and ligated into a modified baculovirus transfer vector (pFastBac1) cleaved with BamHI and EcoRI. For bacterial expression, the same cleaved PCR products encoding Pim-1 or Pim-2 were ligated into a modified E. coli expression vector pET28(a) cleaved with BamHI and EcoRI. Amino-terminal hexahistidine tags followed by a thrombin cleavage site were previously added to the vectors using standard methods of molecular biology.
Recombinant baculoviruses expressing Pim-1 or Pim-2 were made using standard methods (Fastbac manual, Invitrogen, Carlsbad, Calif.). […] Cells were harvested by centrifugation and frozen at −80 C. For E. coli expression, cells carrying pET28-His6-Th-Pim-1 or pET28-His6-Th-Pim-2 were picked from a single colony and grown o/n in LB media. The o/n culture was used to inoculate a 2 liter flask with 500 mL media. This was grown o/n and used to inoculate 15-20 liters of Terrific Broth in a New Brunswick Scientific fermentor. The E. coli were grown at 37° C. to and OD600 >1.6. The temperature was dropped to 18° C. and o/n expression was induced with 0.5 mM IPTG. Cells were harvested by centrifugation and frozen at −80° C.
The slurry was centrifuged at 1,000×g for 5 min, the supernatant decanted, and the resin suspended in 40 mL of lysis wash buffer (lysis buffer at 0.75 M NaCl). This step was repeated 3× and the resin was transferred to a 2.5 cm glass column. Ten column volumes of wash buffer (0.05 M HEPES, pH 8.0, 0.1 M NaCl, 0.01 M 2-mercaptoethanol, 10%(w/v) glycerol) were applied to the resin followed by 10 column volumes of elution buffer (0.05 M HEPES, pH 8.0, 0.25 M NaCl, 0.01 M 2-mercaptoethanol, 10%(w/v) glycerol, 0.1 M imidazole). Fractions were analyzed by SDS-PAGE and those containing the protein of interest were pooled and concentrated. The concentrated protein was applied to an Amersham Superdex 75 (XK 26/60) column equilibrated in 0.025 M Tris-HCl, pH 7.5, 0.1 M NaCl, 0.01 M 2-mercaptoethanol, 10% (w/v) glycerol. […] Fractions containing the monomeric protein of interest were pooled, concentrated to ˜2 mg/mL, and stored at −80° C.
The phosphorylation of biotinylated-BAD (S112) peptide by full length recombinant Pim-1, Pim-2, or Pim-3 protein was detected with streptavidin:Allophycocyanin (APC) conjugate and a europium (Eu) labeled antibody directed against phosphorylated-BAD (S112). […] The fluorescence is directly proportional to the amount of phosphorylated BAD peptide present in the reaction. […] A reference compound was included on each assay plate in order to validate that plate; on one plate of every assay run, two additional reference compounds were included. The final buffer conditions were as follows: 60 mM Hepes, pH 7.0, 0.05% BSA, 2 mM DTT. Incubations were carried out at RT (22° C.) for 2 h for Pim-1, 1 hour and 30 min for Pim-3, and 45 min for Pim-2. The reaction was stopped by the addition of 3 mM EDTA, and fluorescence was measured by an HTRF® Rubystar microplate reader. For each plate, percent of control (POC) values were calculated for each well. Values for the IC50 IP were estimated using a standard 4-parameter logistic model.
In general terms: Time-resolved FRET reads energy transfer from a long-lived donor to a nearby acceptor.

Experiment [2] addresses T1, Pim-1. Description: Pim-Mn enzyme assay (HTRF, 384-well), Pim-1. Type of experiment: biochemical. To be noted: Pim-1 enzyme 5 pM, ATP 1.5 μM, BAD (S112) 0.5 μM, HTRF, 22-point curve; read-out: Pim-1-Mn IC50 IP.
In the next experiment the target is Pim-2 (Homo sapiens (Human), UniProt Q9P1W9). Description: Pim-Mn enzyme assay (HTRF, 384-well), Pim-2. To be noted: Pim-2 enzyme 0.5 pM, ATP 1.5 μM, BAD (S112) 0.5 μM, HTRF, 22-point curve; read-out: Pim-2-Mn IC50 IP. It is filed as biochemical.
Experiment [3] relates to KMS-12-BM myeloma cell line. The experiment can be described thus: Pim KMS-12 cell assay (phospho-BAD S112 / total BAD, MSD). As to conditions: Homo sapiens, KMS-12-BM.
The subject of a further experiment is KMS-12-BM cell lines. The experiment can be described thus: KMS12 #2 flow cytometry assay (phospho-BAD Ser112). It is filed as cell-based. To be noted: Homo sapiens, KMS-12-BM, 110 min, read-out: KMS-12-Flow IC50 IP. In general terms: In flow cytometry, cells or beads pass a laser one at a time.
[4] abbreviates: read-out: KMS-12-BM IC50 IP, KMS-12-BM cells, phospho-BAD (S112) vs total BAD, 1 hour 50 min with compound.

Molecules are shown by their SMILES. Where two headings read alike, the source gives them in different places.

T1 sequence (P11309 whole entry): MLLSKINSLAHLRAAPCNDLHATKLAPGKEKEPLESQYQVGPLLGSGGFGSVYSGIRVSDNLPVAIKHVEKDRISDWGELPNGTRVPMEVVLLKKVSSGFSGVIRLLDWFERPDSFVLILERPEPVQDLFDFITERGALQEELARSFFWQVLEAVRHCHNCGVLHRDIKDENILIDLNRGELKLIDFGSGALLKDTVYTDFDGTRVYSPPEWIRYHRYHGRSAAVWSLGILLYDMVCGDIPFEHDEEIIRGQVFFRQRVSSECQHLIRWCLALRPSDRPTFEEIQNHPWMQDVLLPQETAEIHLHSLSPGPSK
Chain of Pim-2 (Q9P1W9 whole entry): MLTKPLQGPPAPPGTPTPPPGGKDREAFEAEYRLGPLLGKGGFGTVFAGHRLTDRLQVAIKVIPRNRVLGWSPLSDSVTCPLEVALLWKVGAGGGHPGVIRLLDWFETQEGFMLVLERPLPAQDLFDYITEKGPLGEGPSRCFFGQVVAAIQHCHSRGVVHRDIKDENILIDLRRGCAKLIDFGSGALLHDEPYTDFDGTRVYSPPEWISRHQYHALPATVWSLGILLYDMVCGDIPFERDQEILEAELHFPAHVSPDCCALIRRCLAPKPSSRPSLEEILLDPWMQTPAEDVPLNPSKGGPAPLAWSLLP

On to `CCC1CNC(=O)c2cc(-c3cccc4ccc(Cl)nc34)[nH]c21` (racemic) [Example 22, rac-2-(2-chloroquinolin-8-yl)-7-ethyl-6,7-dihydro-1H-pyrrolo[3,2-c]pyridin-4(5H)-one], for which, at Pim-1 [1], the IC50 (usually the concentration at which inhibition is half-maximal) was 60.9 nM.
Consider `CCC1CNC(=O)c2cc(-c3cccc4ccc(Oc5ccccc5)nc34)[nH]c21` (racemic) [Example 23, rac-7-ethyl-2-(2-phenoxyquinolin-8-yl)-6,7-dihydro-1H-pyrrolo[3,2-c]pyridin-4(5H)-one], for which, at Pim-1 [1], the IC50 came to 14.1 nM.
Turning to `CC(C)CC1CNC(=O)c2cc(-c3cccc4cccnc34)[nH]c21` (racemic) [Example 125, rac-7-isobutyl-2-(quinolin-8-yl)-6,7-dihydro-1H-pyrrolo[3,2-c]pyridin-4(5H)-one], the IC50 at Pim-1 [2] is 21.1 nM; at Pim-2, 278 nM; on Pim-1 [1], 41.8 nM.
`O=C1NCCc2[nH]c(-c3c(F)ccc4ccc(NC5CCCCC5)nc34)cc21` [Example 90, 2-(2-(cyclohexylamino)-7-fluoroquinolin-8-yl)-6,7-dihydro-1H-pyrrolo[3,2-c]pyridin-4(5H)-one]: on Pim-1 [1], the IC50 turned out to be 340 nM.
On to `O=C(NC1CC1)c1ccc2cccc(-c3cc4c([nH]3)CCNC4=O)c2n1` [Example 94, N-cyclopropyl-8-(4-oxo-4,5,6,7-tetrahydro-1H-pyrrolo[3,2-c]pyridin-2-yl)quinoline-2-carboxamide], for which the IC50 at Pim-1 [1] was determined as 269 nM.
In the case of `O=C(Nc1ccccc1)c1ccc2cccc(-c3cc4c([nH]3)CCNC4=O)c2n1` [Example 95, 8-(4-oxo-4,5,6,7-tetrahydro-1H-pyrrolo[3,2-c]pyridin-2-yl)-N-phenylquinoline-2-carboxamide], the IC50 on Pim-1 [1] is 222 nM.
For `COCCNC(=O)c1ccc2cccc(-c3cc4c([nH]3)CCNC4=O)c2n1` [Example 96, N-(2-methoxyethyl)-8-(4-oxo-4,5,6,7-tetrahydro-1H-pyrrolo[3,2-c]pyridin-2-yl)quinoline-2-carboxamide], the IC50 at Pim-1 [1] was 283 nM.
The same measure, in the same setting: to `CN1CCN(C(=O)c2ccc3cccc(-c4cc5c([nH]4)CCNC5=O)c3n2)CC1` [Example 97, 2-(2-(4-methylpiperazine-1-carbonyl)quinolin-8-yl)-6,7-dihydro-1H-pyrrolo[3,2-c]pyridin-4(5H)-one] belongs 227 nM.
For the molecule `Cc1nc2cccc(-c3cc4c([nH]3)CCNC4=O)c2nc1NC1CCCCCC1` [Example 134, 2-(3-(cycloheptylamino)-2-methylquinoxalin-5-yl)-6,7-dihydro-1H-pyrrolo[3,2-c]pyridin-4(5H)-one], the IC50 at Pim-1 [1] amounted to 8.9 nM.
With `Cn1cc(-c2cccc3ccc(Nc4ccccc4)nc23)cc1C(N)=O` [Example 164, 1-methyl-4-(2-(phenylamino)quinolin-8-yl)-1H-pyrrole-2-carboxamide], the IC50 at Pim-1 [1] was 243 nM.
For the molecule `O=C1NCCn2cc(-c3cccc4ccc(C(=O)N5CCCC5)nc34)cc21` [Example 168, 7-(2-(pyrrolidine-1-carbonyl)quinolin-8-yl)-3,4-dihydropyrrolo[1,2-a]pyrazin-1(2H)-one], the IC50 on Pim-1 [1] stood at 608 nM.
Regarding `Cc1nc2cccc(-c3cc4c([nH]3)CCNC4=O)c2nc1N(C)C(C)(C)C` [Example 222, 2-(3-(tert-butyl(methyl)amino)-2-methylquinoxalin-5-yl)-6,7-dihydro-1H-pyrrolo[3,2-c]pyridin-4(5H)-one], the IC50 on Pim-1 [2] was 3.5 nM; at Pim-2, 2.1 nM; in experiment [3] (read-out: KMS-12-BM IC50 IP), 397 nM.
Consider `Cc1nc2cccc(-c3cc4c(=O)[nH]cnc4[nH]3)c2nc1NC1CCC1` [Example 260, 6-(3-(cyclobutylamino)-2-methylquinoxalin-5-yl)-3H-pyrrolo[2,3-d]pyrimidin-4(7H)-one], for which the IC50 at Pim-1 [2] amounted to 1.6 nM; at Pim-2 it was 1.23 nM; in experiment [3] (setting [4]) it was 243 nM.
In the case of `Cc1nc2cccc(-c3cc4c(=O)[nH]cnc4[nH]3)c2nc1NC(C)(C)C` [Example 261, 6-(3-(tert-butylamino)-2-methylquinoxalin-5-yl)-3H-pyrrolo[2,3-d]pyrimidin-4(7H)-one], the IC50 was determined as 1.22 nM at Pim-1 [2], 1.29 nM on Pim-2 and 252 nM in experiment [3] (setting [4]).
With `Cc1nc2cccc(-c3cc4c(=O)[nH]cnc4[nH]3)c2nc1NC(C)(C)CO` [Example 263, 6-(3-((1-hydroxy-2-methylpropan-2-yl)amino)-2-methylquinoxalin-5-yl)-3H-pyrrolo[2,3-d]pyrimidin-4(7H)-one], the figures for the 50% inhibitory concentration (IC50) (at Pim-1 [2]; on Pim-2; in experiment [3] (setting [4])) were 5.1 nM, 5.8 nM and 907 nM, respectively.
For the molecule `Cc1nc2cccc(-c3cc4c([nH]3)CCNC4=O)c2nc1N[C@@H](C)C1CC1` [Example 270, 2-(3-(((1S)-1-cyclopropylethyl)amino)-2-methyl-5-quinoxalinyl)-1,5,6,7-tetrahydro-4H-pyrrolo[3,2-c]pyridin-4-one], the IC50 on Pim-1 [2] came out at 2.2 nM; at Pim-2 it was 1.4 nM; in experiment [3] (setting [4]) it was 215 nM.
With `Cc1nc2cccc(-c3cc4c([nH]3)CCNC4=O)c2nc1N[C@H](C)C1CC1` [Example 271, 2-(3-(((1R)-1-cyclopropylethyl)amino)-2-methyl-5-quinoxalinyl)-1,5,6,7-tetrahydro-4H-pyrrolo[3,2-c]pyridin-4-one], the results for the IC50 (at Pim-1 [2]; at Pim-2; in experiment [3] (setting [4])) were 1.3 nM, 2 nM and 418 nM, respectively.
The like results for `COc1nc2cccc(-c3cc4c([nH]3)CCNC4=O)c2nc1NC(C)(C)C` [Example 276, 2-(3-(tert-butylamino)-2-methoxy-5-quinoxalinyl)-1,5,6,7-tetrahydro-4H-pyrrolo[3,2-c]pyridin-4-one] were, in that order, 1.8 nM, 5 nM and 1220 nM.
For `Cc1nc2cccc(-c3cc4c([nH]3)CCNC4=O)c2nc1NC1(CO)CC1` [Example 277, 2-(3-((1-(hydroxymethyl)cyclopropyl)amino)-2-methyl-5-quinoxalinyl)-1,5,6,7-tetrahydro-4H-pyrrolo[3,2-c]pyridin-4-one], the IC50 at Pim-1 [2] stood at 1 nM; on Pim-2, 0.4 nM; in experiment [3] (setting [4]) it was 169 nM.
`Cc1nc2cccc(-c3cc4c([nH]3)CCNC4=O)c2nc1NCC1(C)COC1` [Example 281, 2-(2-methyl-3-(((3-methyl-3-oxetanyl)methyl)amino)-5-quinoxalinyl)-1,5,6,7-tetrahydro-4H-pyrrolo[3,2-c]pyridin-4-one]: the IC50 was determined as 6.7 nM on Pim-1 [2], 2.8 nM at Pim-2 and 533 nM in experiment [3] (setting [4]).
`Cc1nc2ccc(F)c(-c3cc4c([nH]3)CCNC4=O)c2nc1NC(C)(C)C` [Example 286, 2-(3-(tert-butylamino)-6-fluoro-2-methylquinoxalin-5-yl)-6,7-dihydro-1H-pyrrolo[3,2-c]pyridin-4(5H)-one]: the IC50 was determined as 28.2 nM in the experiment on KMS-12-BM cell lines, 0.289 nM on Pim-1 [2], 0.305 nM on Pim-2 and 143 nM in experiment [3] (read-out: KMS-12-BM IC50 IP).
